# Data from patent publication EP4778931A1, “ULK1 INHIBITOR, PREPARATION METHOD THEREFOR AND USE THEREOF” (Dovetree Medicines Unus, Inc., priority 2023, dated 2025).
# System: autophagy level in HEK293 GFP-LC3 stably transfected cells
# Assay: Inhibition of autophagy level in HEK293 GFP-LC3 stably transfected cells (GFP fluorescence, high-content imaging)
# Type: cell-based
# Conditions: Homo sapiens, Torin1 100 nM, 24 h incubation, 8 concentrations, highest 10 µM, read-out: Autophagic Flux IC50
# Description: The inhibitory effect of the compound of the present disclosure on intracellular autophagy was evaluated by testing the impact of the compound of the present disclosure on the fluorescence intensity of HEK293 GFP-LC3 stably transfected cells.
# HEK293 GFP-LC3 stably transfected cells (HEK293, ATCC, CRL-1573) were cultured in a complete medium, namely, a DMEM medium (Gibco, 11965-092) containing 10% fetal bovine serum (Corning, 35-081-CV), 1% double antibody (Gibco, 15140-122) and 1 µg/mL of Puromycin (Invitrogen- A1113803).
# Cell plating: HEK293 GFP-LC3 stably transfected cells at 80% growth confluence were digested, diluted with a medium free of Puromycin, and added to a 96-well cell culture plate (Geriner, 655090) at 12,000 cells per well, with a volume of 90 µL.
# Compound incubation: 5 µL of Torin1 and 5 µL of a serially diluted compound were added to each well so that the highest concentration of the compound in the reaction system was 10 µM. 3-fold serial dilution with 8 concentrations was performed, and the final concentration of Torin1 was 100 nM. The DMSO content in the system was 0.1%. The positive control wells (PC) contain DMSO at a final concentration of 0.1%, and the negative control wells (NC) contain 100 nM of Torin1 with 0.1% of DMSO. The reaction plate was placed in an incubator at 37°C in 5% CO2, and was incubated for 24 h.
# Cell staining and fixation: The cell plate was taken out, and 10 µL of Hochest33342 nuclear staining reagent (Thermo, H1399) was added to each well, followed by incubation at 37°C in 5% CO2 for 30 min. After the incubation was completed, the cell supernatant was discarded, and 100 µL of pre-cooled 4% paraformaldehyde was added to each well to fix the cells for 15 min. Then, the fixative was discarded, and 100 µL of PBS was added to each well. Images were captured for analysis using a high-content cell imaging analyzer (PE, Operetta CLS), and GFP fluorescence signals were collected for data processing.
# The average GFP fluorescence signal intensity in the reaction wells was collected for the calculation of the inhibition ratio: [formula]
# The dose-effect curve was fitted using the log(inhibitor) vs. response -Variable slope of Graphpad Prism8, thereby affording the IC50 value of each compound for inhibiting autophagy level in HEK293 GFP-LC3 stably transfected cells.
row,SMILES,IC50
1,CN1CCN2c3ccc(Nc4ncc(C(F)(F)F)c(OCCCc5ccccc5C#N)n4)cc3COCC2C1 (centres unmarked) [Compound 9],100 to 1000 nM
2,CN1CCN2c3ccc(Nc4ncc(C(F)(F)F)c(OCCCN5CCCCC5=O)n4)cc3COCC2C1 (centres unmarked) [Compound 3],100 to 1000 nM
3,CN1CCN2c3ccc(Nc4ncc(C(F)(F)F)c(NCCCN5CCCCC5=O)n4)cc3COCC2C1 (centres unmarked) [Compound 11],> 1000 nM
4,CN1CCN2c3ccc(Nc4ncc(C(F)(F)F)c(N5CC6(CN(C)C6)C5)n4)cc3COCC2C1 (centres unmarked) [Compound 22],> 1000 nM
5,CN1CCN2c3ccc(Nc4ncc(C(F)(F)F)c(NC5CCN(C(=O)C6CCC6)CC5)n4)cc3COCC2C1 (centres unmarked) [Compound 21],100 to 1000 nM
6,CN1CCN2c3ccc(Nc4ncc(C(F)(F)F)c(OCCCn5cccn5)n4)cc3COCC2C1 (centres unmarked) [Compound 23],100 to 1000 nM
7,CN1CCN2c3ccc(Nc4ncc(C(F)(F)F)c(N5CCC6(CCN(C)C6)CC5)n4)cc3COCC2C1 (centres unmarked) [Compound 2],100 to 1000 nM
8,CN1CCN2c3ccc(Nc4ncc(C(F)(F)F)c(N5CCN(C)C(=O)C5)n4)cc3COCC2C1 (centres unmarked) [Compound 1],> 1000 nM
9,CN1CCN2c3ccc(Nc4ncc(C(F)(F)F)c(N5CC6(CCN(C)C6)C5)n4)cc3COCC2C1 (centres unmarked) [Compound 20],> 1000 nM
10,CN1CCN2c3ccc(Nc4ncc(C(F)(F)F)c(N[C@H]5CC[C@@H](n6cccn6)CC5)n4)cc3COCC2C1 (some centres unmarked) [Compound 6],100 to 1000 nM
11,CN1CCN2c3ccc(Nc4ncc(C(F)(F)F)c(N5CCC6(CCN(C)C6)C5)n4)cc3COCC2C1 (centres unmarked) [Compound 5],100 to 1000 nM
12,CN1CCN2c3ccc(Nc4ncc(C(F)(F)F)c(N5CCC(n6cccn6)CC5)n4)cc3COCC2C1 (centres unmarked) [Compound 4],100 to 1000 nM
13,CN1CCN2c3ccc(Nc4ncc(C(F)(F)F)c(OCCCN5CCCCC5=O)n4)cc3OCC2C1 (centres unmarked) [Compound 12],100 to 1000 nM
14,CN1CCN2c3ccc(Nc4ncc(C(F)(F)F)c(NCCCn5cccn5)n4)cc3COCC2C1 (centres unmarked) [Compound 8],100 to 1000 nM
